Tests used:
[1] = system: human cells; conditions: cited from earlier work
[2] = system: BAEC; test: Apoptosis in vitro (Hoechst nuclear staining) in BAEC; type: cell-based, bovine; conditions: bovine endothelial cells; cisplatin up to 50 μM; etoposide 50 μM alone, 8 hours
Description: Apoptosis was assessed in vitro by examining morphologic changes in nuclear chromatin using bis-benzimide trihydrochloride (Hoechst #33258; Sigma-Aldrich, Milwaukee WI). BAEC and HCAEC monolayer cultures were first detached using 0.25% trypsin and 0.02% EDTA in HBSS and then combined with the floating population of cells. The cell pellet was washed in PBS, resuspended in 3% paraformaldehyde, and incubated for 10 min at 22° C. Following the removal of fixative, cells were resuspended in PBS containing 8 μg/ml of Hoechst-33258. Following a 15-min incubation at 22° C., cells were placed on a glass slide, and scored for the incidence of apoptotic chromatin changes using fluorescence microscope.
Since the ASMase/ceramide pathway is known to play a critical role in endothelial injury and dysfunction, BAEC and HCAEC were treated with paclitaxel (100 nM), etoposide (50 μM), and cisplatin (0.1-50 μM), and endothelial apoptosis was assessed.
To set the basis for experiments involving evaluation of anti-angiogenic therapy in combination with chemotherapy, and the role of ASMase/ceramide pathway in this process, the effects of various factors on the chemotherapy induced cell death were assessed. BAEC were pre-incubated for 30 min with bFGF (2 ng/mL), VEGF (2 ng/mL) or nystatin (30 μg/mL) prior to treatment with etoposide (50 μM), and apoptosis was evaluated after 8 hours using bis-benzamide trihydrochloride staining (FIG. 3).

[3] = system: ASMase; test: ASMase activation in HCAEC; type: cell-based, human; conditions: cisplatin 0.1-50 μM
Description: HCAEC were obtained from Clonetics™ Coronary Artery Endothelial Cell Systems (Cambrex Bio Science Inc.). For HCAEC culturing and sub-culturing Clonetics cell system components were used: EBM®-2, Endothelial Cell Basal Medium-2 with addition of Clonetics EGM-2-MV SingleQuots containing growth supplements (Cambrex) (Biomedical Technologies, Inc.). For sub-culturing, monolayers were dissociated with Clonetics® Trypsin/EDTA solution for 2-3 min at 22° C. at a split ratio of 1:4 to expand the cell population for experiments. HCAEC cultures were maintained at 37° C. in 5% CO2 humidified incubators.
ASMase activity was quantified by radioenzymatic assay using [^14C-methylcholine]sphingomyelin (Amersham) as substrate as described (Schissel et al. J Biol Chem, 271, 18431-18436, 1996). Cell lysates were incubated with [^14C-methylcholine]-sphingomyelin substrate (0.026 mCi/9.5 nmol) in 250 mM sodium acetate, pH 5.0 supplemented with 0.1% Triton X-100 and 1 mM EDTA or 0.1 mM ZnCl. Reactions were terminated after 1 h with CHCl3:MeOH:1N HCl (100:100:1, v/v/v), and [^14C-methylcholine]phosphocholine product in the aqueous layer of the Folch extract was quantified using a Beckman Packard 2200 CA Tricarb scintillation counter. For detection of ASMase activity in patients, 10 μl of serum was used. […]

SMILES: N.N.[Cl][Pt][Cl] [cisplatin]
- ASMase [1]: increase ASMase
- Apoptosis [1]: induce apoptosis
- Apoptotic response [2]: failed to trigger an appropriate apoptotic response
- ASMase activation [3]: failed to activate ASMase
